Source: a melting point compilation (Tetko et al.; mined from patent text by program, amines drawn as free bases though some values may be those of a salt)

Row | melting point [°C] | SMILES
1 | 176 | COc1ccc(C2COc3c(ccc(O)c3O)C2)cc1OC (stereo not given)
2 | 145 to 150 | COC(=O)CN1CCCN(c2ccc(-c3ccc(C#N)cc3)cc2)C1=O
3 | 87 to 88 | CCOC(=O)C(C)(C)Oc1ccc(OCc2oc(-c3ccc(C(F)(F)F)cc3)cc2C(=O)O)cc1
4 | 182 to 184 | O=C(Nc1ccc(Cl)c(C(F)(F)F)c1)Nc1ccc(OCc2ccccc2)cc1O
5 | 119 to 121 | COc1cccc(CCc2c(CCNC(=O)CCCCC(=O)O)ccc(OC)c2OC)c1
6 | 165 to 172 | CCNC(=O)c1c(C2CC2)nc(CC)n1Cc1ccc2oc(-c3ccccc3NS(=O)(=O)C(F)(F)F)cc2c1
7 | 129 | CCOC(=O)C1=C(N)N=C(OCC)C(C(=O)OCC)C1c1cccc([N+](=O)[O-])c1 (stereo not given)
8 | 152 to 154 | COc1ncccc1NC(=O)[C@H]1[C@H](c2ccccc2)C1(C)C (relative stereo)
9 | 197 to 198 | C=CCSc1ccc2[nH]c(NC(=O)OC)nc2c1
10 | 215 to 217 | O=C(c1ccncc1)[N+]1([O-])CCC(C(O)(c2ccc(Cl)cc2)c2nccs2)CC1 (stereo not given)
11 | 162 | COc1ccc(C(C)N(C)CCCOc2ccc(S(=O)(=O)c3ncsc3-c3ccccc3)cc2)cc1OC (stereo not given)
12 | 157 to 158 | Cc1c(Cc2ccc(C(C)C)cc2)c2c(c(C)c1NC(=O)CC(C)(C)C)C(c1ccc(C(C)C)cc1)CO2 (stereo not given)
13 | 87.5 to 89 | CCCc1c(OCc2ccccc2)ccc2c(=O)ccoc12
14 | 243 | O=C(Nc1ccccc1)Nn1ccc2ccccc21
15 | > 240 | CCOCc1cc(Cn2cc(C3c4ccccc4C=Cc4ccccc43)c(=S)[nH]c2=O)cc(C(=O)O)c1
16 | 72 to 73 | CC(C)(C)OC(=O)N1C[C@@H](O)C[C@H]1C(=O)OCc1ccccc1
17 | 111 to 113 | COC(=O)c1cn(CCN)c(Cl)c1-c1cccc(C#N)c1
18 | > 220 | NC(N)=NC(=O)c1ccccc1Sc1ccccc1C(=O)N=C(N)N
19 | 265 to 266 | COC(=O)c1nn(-c2ccccc2)c(=O)c2c1c1cc(Cl)ccc1n2C

Row | melting point [°C] | SMILES
20 | 135 | COc1ccc2cc(-c3ccccc3)cc(CCNC(C)=O)c2c1
21 | 132 to 134 | COc1ccc(C(=O)CCC(C(=O)c2ccc(OCc3ccccc3)cc2)c2ccc(OC)cc2)cc1 (stereo not given)
22 | 127 to 130 | CCCCNC(=O)c1cnc2ccccn2c1=O
23 | 142 to 144 | COCCc1nc2c(N)nc3ccccc3c2n1CCOCCS(C)(=O)=O
24 | 172 to 173 | Cc1scc2c1N(C(=O)CN1CCCCC1CN(C)C)c1ccccc1NC2=O (stereo not given)
25 | 138 to 142 | CC1(CN2CCCN(Cc3ccc(-c4ccccc4)cc3)CC2)Cn2cc([N+](=O)[O-])nc2O1 (stereo not given)
26 | 153 to 155 | NC(=O)COc1ccc([N+](=O)[O-])cc1
27 | 260 to 266 | CN1CCN2c3ccccc3Cn3c(c(C=O)c4ccccc43)C2C1 (stereo not given)
28 | 220 to 222 | O=C(O)Cc1cn(S(=O)(=O)c2c(Cl)nc3sccn23)c2ccccc12
29 | 172 | Cc1ccsc1NC(=O)NCC(=O)N(CC(=O)N(C)c1ccccc1)c1ccccc1
30 | 202 to 203 | CC(=O)c1c(-c2ccccc2)[nH]c(-c2ccncc2)c1C
31 | 119 to 121 | CCCCCCc1cc(C(=O)OCC)c(-c2ccccc2)c(-c2ccccc2)c1C(=O)OCC
32 | 154 to 155 | CC(OC(=O)C1CCNCC1)C(c1ccccc1)(c1ccccc1)c1ccccc1 (stereo not given)
33 | 172 to 175 | CC(O)(c1ccccc1)C1CCNCC1 (stereo not given)
34 | 102 to 104 | CCCCCNC(=O)[C@@H]1CCCN1C(=O)[C@H](C)NC(=O)OCc1ccccc1
35 | 123 to 124 | CCN(c1ccncc1)c1ccccc1C(=O)N1CCCCC1
36 | 176 to 178 | COC(=O)C1=Cc2cc(O)ccc2S(=O)(=O)CC1
37 | 291 to 292 | O=C(Nc1nc(-c2ccccc2)cs1)c1ccccc1C(c1ccc(O)cc1)c1ccc(O)cc1
38 | 134 to 135 | COc1ccc(/C=C/C=C/C(=O)O)cc1

Row | melting point [°C] | SMILES
39 | 150 to 151 | CC(=O)c1ccc(S(=O)(=O)Nc2nnn[nH]2)cc1
40 | 173 to 175 | COc1ccc(C2(c3ccc(OC)cc3)CC2(Br)Br)cc1
41 | 168 to 170 | CSc1ccc(-c2nc(=O)c3ccccc3s2)cn1
42 | 270 to 274 | Cn1cc(CO)c2c3c(c(-c4ccccc4Cl)cc21)C(=O)NC3=O
43 | 232 to 233 | CC1(C)Nc2ccc(Br)cc2C(NC(=NC#N)Nc2ccccc2)C1O (stereo not given)
44 | 142 to 143 | COC(=O)ON=C1C(=O)c2ccccc2-c2ccccc21
45 | 210 to 212 | CCCCc1ncc(/C=C(\Cc2cccs2)C(=O)O)n1Cc1ccc(C(N)=O)cc1
46 | 122 | COC(=O)C(Cc1ccc(OCCn2c(=O)sc3cc(Cc4ccc(-c5ccccc5)cc4)ccc32)cc1)C(=O)OC
47 | 148 to 150 | COCc1cc2c(C(=O)Nc3ccnn3C)ccc(OC)c2o1
48 | 202 to 204 | COc1ccc(NC(=O)Nc2ccc(Cl)c(Cl)c2)cc1N
49 | 107 to 110 | O=S(=O)(Oc1cccc(O)c1)c1ccc(Cl)c(Cl)c1
50 | 171 to 172 | COC(=O)c1c(OCc2ccccc2)ccc2c1CC[C@@H](NC(C)=O)[C@@H]2OC(C)=O (relative stereo)
51 | 125 to 128 | CCc1cc(C(=O)c2ccccc2Cl)c(-n2c(CO)nnc2CNC(=O)c2ccc(Cl)c(Cl)c2)s1
52 | 67 to 71 | COc1ccc2cccc(Cc3ccccc3)c2c1O
53 | 172 to 173 | O=c1ccn(-c2cccc(C(F)(F)F)c2)nc1-c1nnnn1-c1ccccc1
54 | 173 to 175 | COc1ccc(NS(=O)(=O)c2ccc([N+](=O)[O-])cc2)cc1
55 | 179 to 181 | COc1ccc(C(Sc2cc(Oc3ccc(Cl)cc3)ccc2N)C(O)C(=O)O)cc1 (stereo not given)
56 | 165 | COc1ccc(C(=O)C(=O)c2ccc(-c3ccc(F)cc3)s2)cc1C
57 | 126 to 128 | COc1ccc2c(c1)cc(C1(O)C=CC(=O)C=C1)n2S(=O)(=O)c1ccccc1

Further lines, the compound ahead of its results:

Row | SMILES | melting point [°C]
58 | COc1cc2sc(C#N)cc2c(Cl)c1OC | 159 to 160
59 | CCOC(=O)N1CCc2[nH]c(=O)n3nc(-c4ccccc4F)nc3c2C1 | 307 to 311
60 | O=C(O)c1cn(CCF)c2cc(F)c(F)cc2c1=O | 249 to 251
61 | CN1CCc2c(O)ccc(Cl)c2CC1 | 178 to 180
62 | CCOC(=O)c1cn(C2CC2)c2cc(NCCO)c(F)cc2c1=O | 228 to 230
63 | COC(=O)C=Cc1cc(C(=O)O)ccc1NC(=O)NC(=O)c1cc(F)c(F)cc1Cl | 99
64 | CC(=O)C1Cc2ccc(O)c(O)c2C1=O (stereo not given) | 159 to 160
65 | CCCCC(Br)C(=O)c1cc(NC(C)=O)ccc1O (stereo not given) | 137 to 138
66 | C[C@H](NC(=O)COCCNC(=O)C12CC3CC(CC(C3)C1)C2)C(=O)N[C@H](CCC(=O)OCc1ccccc1)C(N)=O | 57 to 64
67 | O=C(O)c1cc(S(=O)(=O)Cl)cc2c1OCCO2 | 210 to 215
68 | CCOP(=O)(CC(=O)Nc1cc2c(Nc3ccc(F)c(Cl)c3)ncnc2cc1OCC1CC1)OCC | 185 to 187
69 | CCOC(=O)COc1cc(OC)c2c(c1)OC1(CCCC1)CC2=O | 81 to 82
70 | COc1ccc(-c2nc3cnncc3[nH]2)c(OC)c1 | 268
71 | CN(C)c1nc(N(C)C)c2nnn(Cc3ccccc3F)c2n1 | 123 to 125
72 | CC(=O)Nc1c([N+](=O)[O-])cc(F)c(F)c1F | 96 to 97
73 | CCOC(=O)c1cn(-c2ncns2)c2nc(Cl)c(F)cc2c1=O | 203 to 206
74 | O=C(c1ccc(CCl)cc1)N1CCCCC1 | 106 to 108
75 | Cc1c(C#N)c(-c2ccc(C#N)cc2)c(C)n1Cc1cnc(Cl)c(CO)c1 | 147 to 148
76 | Cn1c(=O)c(-c2ccc(Cl)cc2Cl)cc2c3cc(-c4nc(CN)cs4)ccc3n(C)c21 | 261 to 266
77 | COc1cc2c(c(Cl)c1Cl)CCC2=O | 163 to 165
78 | CC(C)(CCl)c1cc(Cl)nnc1Br | 79 to 81
79 | Cc1nc(N2CCc3ccccc3CC2)c(C#N)c(=O)n1N | 137 to 142

Row | SMILES | melting point [°C]
80 | N#CCn1nc2n(c1=O)-c1ccc(Cl)nc1C(c1ccccc1Cl)=NC2 | 198 to 200
81 | CNC(=S)NCCCCc1nccs1 | 130 to 132
82 | CCOC(=O)c1ccc([N+](=O)[O-])cc1C | 71 to 72
83 | CCCCCCCCCCOc1ccc(-c2ccc(CCCCC(C)O)cc2)cc1 (stereo not given) | 92 to 93
84 | CN1CCN(c2n[nH]c3ccccc23)CC1 | 111 to 113
85 | N#CC(C#N)=CN(N=C(C#N)C#N)c1ccc([N+](=O)[O-])cc1 | 179 to 181
86 | CC1CC(=O)NN=C1c1ccc2c(c1)OCC(=O)N2C (stereo not given) | 188 to 190
87 | COc1cc(C=CC(=O)OC2CC3C(O)C(OC(=O)C=Cc4cc(OC)c(OC)c(OC)c4)C(C2)N3C)cc(OC)c1OC (stereo not given) | 59 to 61
88 | O=C1Cc2ccc(F)cc2C(c2ccc(Cl)cc2)N1 (stereo not given) | 131 to 133
89 | Cc1nc(Nc2c([N+](=O)[O-])cc(C(F)(F)F)c(Cl)c2[N+](=O)[O-])c(Cl)cc1Cl | 128 to 130
90 | CS(=O)(=O)c1ccc(C(=O)O)c(Cl)c1CO | 240 to 245
91 | COC(=O)c1ccc(Cl)c(-n2nnn(C)c2=O)c1Cl | 135 to 137
92 | COc1ccc2cc([C@H](C)C(=O)OCC(CO[N+](=O)[O-])(CO[N+](=O)[O-])[N+](=O)[O-])ccc2c1 | 69 to 71
93 | CON(C)C(=O)Nc1cc(C(C)(C)C)on1 | 106 to 107
94 | Cc1nc(-c2ccc(O)cc2)[nH]c1Cl | 226 to 228
95 | CN1C(O)=C(C(=O)Nc2ccc(Br)cc2)c2ccsc2S1(=O)=O | 197 to 199
96 | CCOc1ccc(-c2ccc3c(c2)C=C(C(=O)Nc2ccc(CN(C)C4CCOCC4)cc2)CCN3C=O)cc1 | 211 to 215
97 | COC(=O)CCCCCCCCCCCNC(=O)NC12CC3CC(CC(C3)C1)C2 | 75
98 | CNC(=O)N(OC(=O)NC(C)(C)C)C(C)=O | 142 to 144
99 | COc1ccc2c(c1)CCC1CCN(CO)C(=O)C(CC(C)N(C)C(C)C)=C21 (stereo not given) | 158 to 161
100 | Cc1cc(C)nc(N(CCN(C)C)C(N)=O)c1 | 88 to 89
